Where two headings read alike, the source gives them in different places.
Legend:
HIV-I (RF) = test: Effect of treating HIV-I (RF)-infected cells (C8166) 24 hours post-infection (Example V, Table VII); details: for activity at 10 µM: Human immunodeficiency virus 1, C8166, 144 h, read-out: P24 % CONTROL, 10 μM
Protocol: Cells were infected with strain RF or GB8 for 24 hours at 37° C. at a multiplicity of infection of 0.001. Cells were washed three times to remove residual virus and then replated into fresh growth medium. Cells were then treated for 24 and 48 hours post-infection (p.i.) with the indicated concentrations of test compounds. Syncytia and P24 antigen levels were determined on the indicated days p.i. by methods described before.

HIV (Strain GB8) = test: JM cells infected with HIV strain GB8: syncytia and p24 (Example VII); assay type: cell-based; details: for p24 3 days p.i.: supernatant screened at 1/100 dilution
Protocol: JM cells were infected with HIV (Strain GB8) to give approximately 200 syncytia/1×10^5 cells after 3 days; virus infection was for 1 hour at room temperature.

MT4 cells = test: Toxicity to MT4 cells (TD50, Table IV, MTT); assay type: cell-based; details: MT4 cells, 7 days, MTT
Protocol: (§1) Various oligomers were dissolved in RPMI and were then assayed for anti-HIV activity by making doubling dilutions of the solutions across a 96 well microtitre plate. To each well were then added 5×10^4 cells and 100 TCID50 of virus and the plates incubated at 37° C. for 7 days. MTT was added to each well and the plates incubated for a further 2 hours. The blue formazan crystals were dissolved using acidic isopropanol, and the absorbance measured at 540 nm.

HIV strain RF = test: Ability to prevent virus-induced cell death using MT4 cells and strain RF (Example III); assay type: cell-based; details: MT4 cells, 7 days, MTT, 10080 min
Protocol: as §1

GB8 virus in JM cells = test: Virus infection of JM cells with GB8 in the presence of test compounds: syncytia and P24 (Example II); details: for SYNCYTIA % / P24 %: % of control; for SYNCYTIA %: 2880 min; for P24 %: 5760 min
Protocol: Virus infection of JM cells was carried out in the presence of different concentrations of test compounds. JM cells (1×10^5) and 50-100 syncytial forming units of virus (GB8) were added to duplicate wells of a tissue culture plate containing 1 mL volumes of growth medium with or without drug. The plate was incubated for 2 days at 37° C. and then scored for the presence of syncytia. At the same time the cells were washed and the growth medium replaced. After a further two days incubation, the cell free supernatant fluids were harvested and assayed for levels of P24 viral core antigen using the Coulter™ HIV Antigen assay.

HIV (Strain RF) = test: Anti-HIV activity in C8166 cells infected with HIV strain RF: syncytia and p24 (Example VI); assay type: cell-based; details: for p24 % of VIRUS CONTROL: 2880 min
Protocol: Protocol: C8166 cells were infected with HIV (Strain RF) for 1 hour at room temperature to give a multiplicity of infection of approximately 0.01 infectious units per cell.

Nc1ccn([C@H]2CC[C@@H](CO)O2)c(=O)n1 [ddC, reference compound]
P24 DAY 6 p.i. (HIV-I (RF); 10 μM, addition 0 hours p.i.): 13000 pg/mL | SYNCYTIA/WELL DAY 2 (HIV-I (RF); 10 μM, addition 0 hours p.i.): 0 | SYNCYTIA/WELL DAY 3 (HIV-I (RF); 10 μM, addition 0 hours p.i.): 0 | P24 DAY 6 p.i. (HIV-I (RF); 10 μM, addition 24 hours p.i.): 420000 pg/mL | activity at 10 µM (HIV-I (RF); addition 0 hours p.i.): 1.4% | activity at 10 µM (HIV-I (RF); addition 24 hours p.i.): 44.2% | MEAN SYNCYTIA 3 days p.i. (HIV (Strain GB8); 0.01 μg/ml): 80 | p24 3 days p.i. (HIV (Strain GB8); 0.01 μg/ml): 5400 pg/mL | MEAN SYNCYTIA 3 days p.i. (HIV (Strain GB8); 0.1 μg/ml): 2 | p24 3 days p.i. (HIV (Strain GB8); 0.1 μg/ml): neg | MEAN SYNCYTIA 3 days p.i. (HIV (Strain GB8); 1 μg/ml): 0 | p24 3 days p.i. (HIV (Strain GB8); 1 μg/ml): neg | MEAN SYNCYTIA 3 days p.i. (HIV (Strain GB8); 10 μg/ml): 0 | p24 3 days p.i. (HIV (Strain GB8); 10 μg/ml): neg

poly{imino[2,2'-disulfo(1,1'-biphenyl)-4,4'-diyl]iminocarbonyl-1,4-phenylenecarbonyl}, alpha-{[(4-methylphenyl)amino]carbonyl}-omega-[(4-methylphenyl)amino]- [Example 8C]
TD50 (MT4 cells): > 100 µg/mL | ED50 (HIV strain RF): 2.2 µg/mL

poly[imino(3-sulfo-1,4-phenylene)-1,2-ethenediyl-(2-sulfo-1,4-phenylene)iminocarbonyl], alpha-{[(4-methylphenyl)aminocarbonyl}-omega-[(4-methylphenyl)amino- [Example 2A]
TD50 (MT4 cells): > 100 µg/mL | ED50 (HIV strain RF): 1.9 µg/mL

poly{imino[2,2'-disulfo(1,1'-biphenyl)-4,4'-diyl]iminocarbonyl-1,4-phenylenecarbonyl}, alpha-{[(4-methylphenyl)amino]carbonyl}-omega-[(4-methylphenyl)amino]- [Example 8B]
TD50 (MT4 cells): > 100 µg/mL | ED50 (HIV strain RF): 2.1 µg/mL

poly{imino[2,2'-disulfo(1,1'-biphenyl)-4,4'-diyl]iminocarbonyl-1,4-phenylenecarbonyl}, alpha-{[(4-methylphenyl)amino]carbonyl}-omega-[(4-methylphenyl)amino]- [Example 8A]
TD50 (MT4 cells): > 100 µg/mL | ED50 (HIV strain RF): 1.5 µg/mL | P24 (GB8 virus in JM cells; Table II, 1 μg/mL): 4.3 × 10^4 units/mL | SYNCYTIA (2 DAYS) MEAN (GB8 virus in JM cells; Table II, 1 μg/mL): 3 | SYNCYTIA % (GB8 virus in JM cells; Table II, 1 μg/mL): 7% | P24 % (GB8 virus in JM cells; Table II, 1 μg/mL): 12% | P24 (GB8 virus in JM cells; Table II, 3 μg/mL): 4.4 × 10^4 units/mL | SYNCYTIA (2 DAYS) MEAN (GB8 virus in JM cells; Table II, 3 μg/mL): 0 | SYNCYTIA % (GB8 virus in JM cells; Table II, 3 μg/mL): 0% | P24 % (GB8 virus in JM cells; Table II, 3 μg/mL): 12% | SYNCYTIA (2 DAYS) MEAN (GB8 virus in JM cells; Table II, 10 μg/mL): 0 | SYNCYTIA % (GB8 virus in JM cells; Table II, 10 μg/mL): 0% | SYNCYTIA (2 DAYS) MEAN (GB8 virus in JM cells; Table II, 30 μg/mL): 0 | SYNCYTIA % (GB8 virus in JM cells; Table II, 30 μg/mL): 0% | SYNCYTIA (2 DAYS) MEAN (GB8 virus in JM cells; Table II, 100 μg/mL): 0 | SYNCYTIA % (GB8 virus in JM cells; Table II, 100 μg/mL): 0% | P24 (GB8 virus in JM cells; Table III, 5 μg/mL): 268599 pg/mL | SYNCYTIA MEAN (GB8 virus in JM cells; Table III, 5 μg/mL): 35 | SYNCYTIA % (GB8 virus in JM cells; Table III, 5 μg/mL): 51% | P24 % (GB8 virus in JM cells; Table III, 5 μg/mL): 81% | P24 (GB8 virus in JM cells; Table III, 50 μg/mL): 11600 pg/mL | SYNCYTIA MEAN (GB8 virus in JM cells; Table III, 50 μg/mL): 0 | P24 % (GB8 virus in JM cells; Table III, 50 μg/mL): 3.5% | SYNCYTIA MEAN (GB8 virus in JM cells; Table III, 500 μg/mL): 0

poly{oxy[2,2'-disulfo(1,1'-biphenyl)-4,4'-diyl]oxy-carbonyl}, alpha-[(4-methylphenoxy)carbonyl]-omega-(4-methylphenoxy)- [Example 5]
p24 Day 2 (HIV (Strain RF); 12 μg/ml): 3250 pg/mL | p24 % of VIRUS CONTROL (HIV (Strain RF); 12 μg/ml): 100% | p24 Day 2 (HIV (Strain RF); 25 μg/ml): 2320 pg/mL | p24 % of VIRUS CONTROL (HIV (Strain RF); 25 μg/ml): 73% | p24 Day 2 (HIV (Strain RF); 50 μg/ml): 2780 pg/mL | p24 % of VIRUS CONTROL (HIV (Strain RF); 50 μg/ml): 87% | p24 Day 2 (HIV (Strain RF); 100 μg/ml): 1060 pg/mL | p24 % of VIRUS CONTROL (HIV (Strain RF); 100 μg/ml): 33% | MEAN SYNCYTIA 3 days p.i. (HIV (Strain GB8); 25 μg/ml): > 200 | p24 3 days p.i. (HIV (Strain GB8); 25 μg/ml): 67 pg/mL | MEAN SYNCYTIA 3 days p.i. (HIV (Strain GB8); 50 μg/ml): 68 | p24 3 days p.i. (HIV (Strain GB8); 50 μg/ml): neg | MEAN SYNCYTIA 3 days p.i. (HIV (Strain GB8); 100 μg/ml): 22 | p24 3 days p.i. (HIV (Strain GB8); 100 μg/ml): neg | MEAN SYNCYTIA 3 days p.i. (HIV (Strain GB8); 200 μg/ml): 14 | p24 3 days p.i. (HIV (Strain GB8); 200 μg/ml): neg

poly{oxy[2,2'-disulfo(1,1'-biphenyl)-4,4'-diyl]oxy-carbonyl-1,4-phenylenecarbonyl}- [Example 6]
p24 Day 2 (HIV (Strain RF); 12 μg/ml): neg | p24 % of VIRUS CONTROL (HIV (Strain RF); 12 μg/ml): 0% | p24 Day 2 (HIV (Strain RF); 25 μg/ml): neg | p24 % of VIRUS CONTROL (HIV (Strain RF); 25 μg/ml): 0% | SYNCYTIA Day 2 (HIV (Strain RF); 50 μg/ml): 0 | p24 Day 2 (HIV (Strain RF); 50 μg/ml): neg | p24 % of VIRUS CONTROL (HIV (Strain RF); 50 μg/ml): 0% | SYNCYTIA Day 2 (HIV (Strain RF); 100 μg/ml): 0 | p24 Day 2 (HIV (Strain RF); 100 μg/ml): neg | p24 % of VIRUS CONTROL (HIV (Strain RF); 100 μg/ml): 0% | MEAN SYNCYTIA 3 days p.i. (HIV (Strain GB8); 25 μg/ml): 25 | p24 3 days p.i. (HIV (Strain GB8); 25 μg/ml): 6800 pg/mL | MEAN SYNCYTIA 3 days p.i. (HIV (Strain GB8); 50 μg/ml): 12 | p24 3 days p.i. (HIV (Strain GB8); 50 μg/ml): neg | MEAN SYNCYTIA 3 days p.i. (HIV (Strain GB8); 100 μg/ml): 0 | p24 3 days p.i. (HIV (Strain GB8); 100 μg/ml): neg | MEAN SYNCYTIA 3 days p.i. (HIV (Strain GB8); 200 μg/ml): 0
